From patent publication US20230203060A1 (GENFLEET THERAPEUTICS (SHANGHAI) INC., priority 2020, published 2023)

Target: T1, KRAS G12C (Homo sapiens, UniProt P01116, G12C)
T1 construct: purchased Reactionbiology
Experiment: KRAS G12C NEA-HTRF experiment (SOS1-catalyzed displacement of GDP by GTP)
Format: biochemical
How it was run: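 His-tagged KRAS G12C preloaded with DY647-GDP was preincubated 15 min at 20 °C with compound, then exchanged with SOS1 (0.2 μM working solution) and GTP (200 μM working solution) for 2 h at 20 °C in the dark. HTRF 665/615 nm ratio with anti-His-Tb was normalised to T0 and no-compound controls; IC50 by four-parameter fit.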

T1 sequence (P01116 1-188 isoform P01116-2 G12C): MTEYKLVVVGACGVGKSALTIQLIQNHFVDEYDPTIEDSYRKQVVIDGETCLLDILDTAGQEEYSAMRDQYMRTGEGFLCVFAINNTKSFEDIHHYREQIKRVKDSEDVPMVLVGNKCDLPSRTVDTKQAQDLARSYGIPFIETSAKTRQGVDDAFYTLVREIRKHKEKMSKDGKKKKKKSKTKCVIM

Row | SMILES | IC50 [nM]
1 | C=CC(=O)N1CCN2C(=O)c3c(N4C[C@@H](N5CCN(C)CC5)CC4(C)C)nc(-c4ccccc4F)c(Cl)c3OC[C@H]2C1 (single isomer, unassigned) [Z454-1] | 9.3
2 | C=CC(=O)N1CCN2C(=O)c3c(N4CC(N(C)C)CC4(C)C)nc(-c4ccccc4F)c(Cl)c3OC[C@H]2C1 (single isomer, unassigned) [Z453-2] | 120
3 | C=CC(=O)N1CCN2C(=O)c3c(N4C[C@H](N5CCN(C)CC5)CC4(C)C)nc(-c4c(F)cccc4Cl)c(Cl)c3OC[C@H]2C1 (single isomer, unassigned) [Z635-2] | 113
4 | C=CC(=O)N1CCN2C(=O)c3c(N4C[C@@H](N5CCN(C)CC5)CC4(C)C)nc(-c4ccccc4F)c(F)c3OC[C@H]2C1 (single isomer, unassigned) [Z474-1] | 89
5 | C=CC(=O)N1CCN2C(=O)c3c(N4CCOC[C@@H]4C)nc(-c4c(O)cccc4F)c(Cl)c3OC[C@H]2C1 [Z32] | 142
6 | C=CC(=O)N1CCN2C(=O)c3c(N4CCC[C@@]4(C)C(=O)NC)nc(-c4c(O)cccc4F)c(Cl)c3OC[C@H]2C1 [Z462, (2S)-1-((6aR)-8-acryloyl-4-chloro-3-(2-fluoro-6-hydroxyphenyl)-12-oxo-6,6a,7,8,9,10-hexahydro-12H-pyrazino[2,1-c]pyrido[3,4-f][1,4]oxazepin-1-yl)-N,2-dimethylpyrrolidine-2-carboxamide] | 131
7 | C=CC(=O)N1CCN2C(=O)c3c(N4C[C@@H](O)CC4(C)C)nc(-c4ccccc4F)c(F)c3OC[C@H]2C1 (single isomer, unassigned) [Z408-1] | 159
8 | C=CC(=O)N1CCN2C(=O)c3c(N4CCN(C)C[C@@H]4C)nc(-c4c(F)cccc4C(F)F)c(Cl)c3OC[C@H]2C1 [Z456, (6aR)-8-acryloyl-4-chloro-3-(2-(difluoromethyl)-6-fluorophenyl)-1-((S)-2,4-dimethylpiperazin-1-yl)-6,6a,7,8,9,10-hexahydro-12H-pyrazino[2,1-c]pyrido[3,4-f][1,4]oxazepin-12-one] | 147
9 | C=CC(=O)N1CCN2C(=O)c3c(N4C[C@H](N(C)C)CC4(C)C)nc(-c4cccc(C)c4F)c(Cl)c3OC[C@H]2C1 (single isomer, unassigned) [Z472-2] | 60
10 | C=CC(=O)N1CCN2C(=O)c3c(N4C[C@@H](NC)CC4(C)C)nc(-c4ccccc4F)c(Cl)c3OC[C@H]2C1 (single isomer, unassigned) [Z661-1] | 33.5
11 | C=CC(=O)N1CCN2C(=O)c3c(N4C[C@H](N(C)CC(F)(F)F)CC4(C)C)nc(-c4ccccc4F)c(Cl)c3OC[C@H]2C1 (single isomer, unassigned) [Z493] | 125
12 | C=CC(=O)N1CCN2C(=O)c3c(N4CC(O)CC4(C)C)nc(-c4c(F)cccc4OC)c(F)c3OC[C@H]2C1 (single isomer, unassigned) [Z450] | 147
13 | C=CC(=O)N1CCN2C(=O)c3c(N4C[C@@H](N5CCN(C)CC5)CC4(C)C)nc(-c4c(O)cccc4F)c(Cl)c3OC[C@H]2C1 (single isomer, unassigned) [Z469-1] | 5
14 | C=CC(=O)N1CCN2C(=O)c3c(N4C[C@@H](N5CCN(C)CC5)C[C@@H]4C)nc(-c4ccccc4F)c(Cl)c3OC[C@H]2C1 [Z470-2] | 24.7
15 | C=CC(=O)N1CCN2C(=O)c3c(N4CCN(C)C[C@@H]4C)nc(C#CC)c(Cl)c3OC[C@H]2C1 [Z459, (R)-8-acryloyl-4-chloro-1-((S)-2,4-dimethylpiperazin-1-yl)-3-(prop-1-yn-1-yl)-6,6a,7,8,9,10-hexahydro-12H-pyrazino[2,1-c]pyrido[3,4-f][1,4]oxazepin-12-one] | 9410
16 | C=CC(=O)N1CCN2C(=O)c3c(N4CCN(C)[C@@H](C)[C@H]4C)nc(-c4ccccc4F)c(Cl)c3OC[C@H]2C1 (single isomer, unassigned) [Z465-1] | 144
17 | C=CC(=O)N1CCN2C(=O)c3c(N4CC(N5CCN(C)CC5)CC4(C)C)nc(-c4c(O)cccc4F)c(Cl)c3OC[C@H]2C1 (stereo partly drawn) [Z467, (6aR)-8-acryloyl-4-chloro-1-(2,2-dimethyl-4-(4-methylpiperazin-1-yl)pyrrolidin-1-yl)-3-(2-fluoro-6-hydroxyphenyl)-6,6a,7,8,9,10-hexahydro-12H-pyrazino[2,1-c]pyrido[3,4-f][1,4]oxazepin-12-one] | 7.7
18 | C=CC(=O)N1CCN2C(=O)c3c(N4CC[C@H](N(C)C)C4(C)C)nc(-c4ccccc4F)c(Cl)c3OC[C@H]2C1 [Z502-2, (6aR)-8-acryloyl-4-chloro-1-(3-(dimethylamino)-2,2-dimethylpyrrolidin-1-yl)-3-(2-fluorophenyl)-6,6a,7,8,9,10-hexahydro-12H-pyrazino[2,1-c]pyrido[3,4-f][1,4]oxazepin-12(6aH)-one] | 160

Row | SMILES | IC50 [nM]
19 | C=CC(=O)N1CCN2C(=O)c3c(N4CC(N5CCN(C)CC5)CC4(C)C)nc(-c4ccccc4F)c(F)c3OC[C@H]2C1 (stereo partly drawn) [Z474, (6aR)-8-acryloyl-1-(2,2-dimethyl-4-(4-methylpiperazin-1-yl)pyrrolidin-1-yl)-4-fluoro-3-(2-fluorophenyl)-6,6a,7,8,9,10-hexahydro-12H-pyrazino[2,1-c]pyrido[3,4-f][1,4]oxazepin-12-one] | 105
20 | C=CC(=O)N1CCN2C(=O)c3c(N4CC(N(C)C)CC4(C)C)nc(-c4cccc(F)c4F)c(Cl)c3OC[C@H]2C1 (single isomer, unassigned) [Z473-2] | 76.8
21 | C=CC(=O)N1CCN2C(=O)c3c(N4CCN(C)C[C@@H]4C)nc(-c4ccccc4Cl)c(Cl)c3OC[C@H]2C1 [Z461, (R)-8-acryloyl-4-chloro-3-(2-chlorophenyl)-1-((S)-2,4-dimethylpiperazin-1-yl)-6,6a,7,8,9,10-hexahydro-12H-pyrazino[2,1-c]pyrido[3,4-f][1,4]oxazepin-12-one] | 331
22 | C=CC(=O)N1CCN2C(=O)c3c(N4CC(N5CCC(F)(F)C5)CC4(C)C)nc(-c4ccccc4F)c(Cl)c3OC[C@H]2C1 (stereo partly drawn) [Z532, (6aR)-8-acryloyl-4-chloro-1-(3,3-difluoro-5′,5′-dimethyl-[1,3′-bipyrrolidin]-1′-yl)-3-(2-fluorophenyl)-6,6a,7,8,9,10-hexahydro-12H-pyrazino[2,1-c]pyrido[3,4-f][1,4]oxazepin-12-one] | 44
23 | C=CC(=O)N1CCN2C(=O)c3c(N4C[C@@H](N(C)CCO)CC4(C)C)nc(-c4ccccc4F)c(Cl)c3OC[C@H]2C1 (single isomer, unassigned) [Z658-1] | 23.8
24 | C=CC(=O)N1CCN2C(=O)c3c(N4CC(NC)CC4(C)C)nc(-c4ccccc4F)c(Cl)c3OC[C@H]2C1 (stereo partly drawn) [Z661, (6aR)-8-acryloyl-4-chloro-1-(2,2-dimethyl-4-(methylamino)pyrrolidin-1-yl)-3-(2-fluorophenyl)-6,6a,7,8,9,10-hexahydro-12H-pyrazino[2,1-c]pyrido[3,4-f][1,4]oxazepin-12-one] | 32.9
25 | C=CC(=O)N1CCN2C(=O)c3c(N4C[C@@H](N(C)C)CC4(C)C)nc(-c4cccc(C)c4F)c(Cl)c3OC[C@H]2C1 (single isomer, unassigned) [Z472-1] | 145
26 | C=CC(=O)N1CCN2C(=O)c3c(N4C[C@@H](N(C)CCF)CC4(C)C)nc(-c4ccccc4F)c(Cl)c3OC[C@H]2C1 (single isomer, unassigned) [Z660-1] | 11.3
27 | C=CC(=O)N1CCN2C(=O)c3c(N4C[C@@H](N5CC(F)C5)CC4(C)C)nc(-c4ccccc4F)c(Cl)c3OC[C@H]2C1 [Z480-1, (R)-8-acryloyl-4-chloro-1-((S)-4-(3-fluoroazetidin-1-yl)-2,2-dimethylpyrrolidin-1-yl)-3-(2-fluorophenyl)-6,6a,7,8,9,10-hexahydro-12H-pyrazino[2,1-c]pyrido[3,4-f][1,4]oxazepin-12-one] | 17.9
28 | C=CC(=O)N1CCN2C(=O)c3c(N4C[C@H](N(C)CCOC)CC4(C)C)nc(-c4ccccc4F)c(Cl)c3OC[C@H]2C1 (single isomer, unassigned) [Z406-1] | 31
29 | C=CC(=O)N1CCN2C(=O)c3c(N4C[C@@H](N(C)CC(F)(F)F)CC4(C)C)nc(-c4ccccc4F)c(Cl)c3OC[C@H]2C1 (single isomer, unassigned) [Z491] | 15
30 | C=CC(=O)N1CCN2C(=O)c3c(N4CC(N(C)CC(F)(F)F)CC4(C)C)nc(-c4ccccc4F)c(Cl)c3OC[C@H]2C1 (mixture of isomers) [Z491a, (6aR)-8-acryloyl-4-chloro-1-(2,2-dimethyl-4-(methyl(2,2,2-trifluoroethyl)amino)pyrrolidin-1-yl)-3-(2-fluorophenyl)-6,6a,7,8,9,10-hexahydro-12H-pyrazino[2,1-c]pyrido[3,4-f][1,4]oxazepin-12-one] | 15
31 | C=CC(=O)N1CCN2C(=O)c3c(N4CCN(C(=O)CC)C[C@@H]4C)nc(-c4ccccc4F)c(Cl)c3OC[C@H]2C1 [Z477, (R)-8-acryloyl-4-chloro-3-(2-fluorophenyl)-1-((S)-2-methyl-4-propionylpiperazin-1-yl)-6,6a,7,8,9,10-hexahydro-12H-pyrazino[2,1-c]pyrido[3,4-f][1,4]oxazepin-12(6aH)-one] | 57
32 | C=CC(=O)N1CCN2C(=O)c3c(N4CCC[C@H]4C)nc(-c4c(O)cccc4F)c(Cl)c3OC[C@H]2C1 [Z48, (6aR)-8-acryloyl-1-((R)-2-methylpyrrolidin-1-yl)-4-chloro-3-(2-fluoro-6-hydroxyphenyl)-6,6a,7,8,9,10-hexahydro-12H-pyrazino[2,1-c]pyrido[3,4-f][1,4]oxazepin-12-one] | 150
33 | C=CC(=O)N1CCN2C(=O)c3c(N4C[C@@H](N5CC(C#N)C5)CC4(C)C)nc(-c4ccccc4F)c(Cl)c3OC[C@H]2C1 (single isomer, unassigned) [Z637-2] | 23.8
34 | C=CC(=O)N1CCN2C(=O)c3c(N4C[C@H](N5CCN(C)CC5)CC4(C)C)nc(-c4c(O)cccc4F)c(Cl)c3OC[C@H]2C1 (single isomer, unassigned) [Z469-2] | 18
35 | C=CC(=O)N1CCN2C(=O)c3c(N4CCN(C)C[C@@H]4C)nc(-c4c(F)cccc4OC)c(F)c3OC[C@H]2C1 [Z451, (6aR)-8-acryloyl-1-((S)-2,4-dimethylpiperazin-1-yl)-4-fluoro-3-(2-fluoro-6-methoxyphenyl)-6,6 a,7,8,9,10-hexahydro-12H-pyrazino[2,1-c]pyrido[3,4-f][1,4]oxazepin-12 (6 aH)-one] | 3000
